The text below walks through data of patent US9296753B2, “Crystalline forms of a Bruton's tyrosine kinase inhibitor” (Pharmacyclics LLC, priority 2012, dated 2016).

≈ marks a conversion by molar mass, not a printed value. Like-named read-outs stand apart in the source and are kept apart here.

By solubility is commonly meant the dissolved amount per volume that the medium holds. What is called thermodynamic solubility is the concentration in solution at equilibrium with solid.

Data set [1] in a line: Thermodynamic aqueous solubility. The note with it: water, 25 °C, thermodynamic from solid. The class given is physicochemical. The protocol:
The suspension was equilibrated at 25° C. for 24 hours then the pH was measured. The suspension was then filtered through a glass fibre C filter. The filtrate was then diluted by an appropriate factor e.g. 101. Quantitation was by HPLC with reference to a standard solution of approximately 0.25 mg/ml in DMSO. Different volumes of the standard, diluted and undiluted sample solutions were injected. The solubility was calculated using the peak areas determined by integration of the peak found at the same retention time as the principal peak in the standard injection.
Analysis was performed on an Agilent HP1100 series system equipped with a diode array detector and using ChemStation software vB.02.01-SR1.

For data set [2] the following is noted: for mass change (GVS): between 0-90% RH. The protocol: Sorption isotherms were obtained using a SMS DVS Intrinsic moisture sorption analyser, controlled by DVS Intrinsic Control software v1.0.0.30. The sample temperature was maintained at 25° C. by the instrument controls. The humidity was controlled by mixing streams of dry and wet nitrogen, with a total flow rate of 200 ml/min. […] The weight change, (mass relaxation) of the sample as a function of % RH was constantly monitored by the microbalance (accuracy±0.005 mg). Typically 5-20 mg of sample was placed in a tared mesh stainless steel basket under ambient conditions. The sample was loaded and unloaded at 40% RH and 25° C. (typical room conditions). A moisture sorption isotherm was performed as outlined below (2 scans giving 1 complete cycle). The standard isotherm was performed at 25° C. at 10% RH intervals over a 0-90% RH range. Data analysis was undertaken in Microsoft Excel using DVS Analysis Suite v6.0.0.7. The sample was recovered after completion of the isotherm and re-analysed by XRPD.

`C=CC(=O)N1CCC[C@@H](n2nc(-c3ccc(Oc4ccccc4)cc3)c3c(N)ncnc32)C1` [Form A, 1-((R)-3-(4-amino-3-(4-phenoxyphenyl)-1H-pyrazolo[3,4-d]pyrimidin-1-yl)piperidin-1-yl)prop-2-en-1-one]: the solubility at 24 h in data set [1] (pH 1.2, simulated gastric fluid, pH 1.2, 25° C., 24 hours, read-out: Conc. Found (solubility in aqueous solution)) was 1300 µg/mL (≈ 2950 µM); in data set [1] (pH 1.64, simulated gastric fluid, pH 1.64, 25° C., 24 hours, read-out: Conc. Found (solubility in aqueous solution)), 1070 µg/mL (≈ 2430 µM); in data set [1] (pH 1.95, simulated gastric fluid, pH 1.95, 25° C., 24 hours, read-out: Conc. Found (solubility in aqueous solution)) it was 820 µg/mL (≈ 1860 µM); in data set [1] (pH 3, aqueous buffer, pH 3, 25° C., 24 hours, read-out: Conc. Found (solubility in aqueous solution)) it was 100 µg/mL (≈ 227 µM); in data set [1] (pH 4, aqueous buffer, pH 4, 25° C., 24 hours, read-out: Conc. Found (solubility in aqueous solution)) it was 22 µg/mL (≈ 49.9 µM); in data set [1] (pH 5, aqueous buffer, pH 5, 25° C., 24 hours, read-out: Conc. Found (solubility in aqueous solution)) it was 17 µg/mL (≈ 38.6 µM). For the same compound, the solubility at 24 h in data set [1] (pH 6, aqueous buffer, pH 6, 25° C., 24 hours, read-out: Conc. Found (solubility in aqueous solution)) was 15 µg/mL (≈ 34.1 µM); in data set [1] (pH 8, aqueous buffer, pH 8, 25° C., 24 hours, read-out: Conc. Found (solubility in aqueous solution)), about 13 µg/mL (≈ 29.5 µM); in data set [1] (pH 9, aqueous buffer, pH 9, 25° C., 24 hours, read-out: Conc. Found (solubility in aqueous solution)), 20 µg/mL (≈ 45.4 µM); in data set [1] (pH 10, aqueous buffer, pH 10, 25° C., 24 hours, read-out: Conc. Found (solubility in aqueous solution)), 10 µg/mL (≈ 22.7 µM). Also, in data set [2], the “changes in the XRPD after GVS analysis” value is given as “No significant changes”. Further, the “mass change (GVS)” value in data set [2] (25° C.) is under 0.3 % w/w.
As to `C=CC(=O)N1CCC[C@@H](n2nc(-c3ccc(Oc4ccccc4)cc3)c3c(N)ncnc32)C1` [Form B, 1-((R)-3-(4-amino-3-(4-phenoxyphenyl)-1H-pyrazolo[3,4-d]pyrimidin-1-yl)piperidin-1-yl)prop-2-en-1-one], the solubility at 24 h in data set [1] (pH 7.42, water, pH of about 7.42, read-out: observed aqueous solubility) was about 9.6 µg/mL (≈ 21.8 µM). The same compound registered a solubility (thermodynamic) at 24 h in data set [1] (pH 7.42, water, pH of 7.42) of 9.6 µg/mL (≈ 21.8 µM). Moreover, in data set [2] (0-90% RH, 25° C.), the “hysteresis (GVS)” value is listed as “No hysteresis”. The “changes in the XRPD after GVS analysis” value in data set [2] is given as “No significant changes”. Besides, the “mass change (GVS)” value in data set [2] (25° C.) is 2.3 % w/w.
